For experiment [1], the target named is T1, CLK1 (Homo sapiens, UniProt P49759).
T1 construct: GST-fusion or His-tag (not specified per kinase); purchased ProQinase GmbH; host or cells: Sf9 insect cells or E. coli (not specified per kinase)
The experiment can be described thus: Radiometric protein kinase assay (33PanQinase Activity Assay), CLK1. The experiment is classed as biochemical. As to conditions: read-out: Potency Class CLK1. The procedure: Assays were performed by ProQinase GmbH (Engesserstr. 4, D-79108 Freiburg, Germany. www.proqinase.com). The IC50 profile of all compounds was determined using 12 protein kinases (CDK2/cyclin E, CK1ε, CLK1, 2, 3, 4, DYRK1A, 1B, 2, 3, 4, GSK3β).
(§1) The compounds were provided as […] in 100% DMSO. Prior to testing, the 1 μM stock solutions were subjected to a serial, semi-logarithmic dilution using 100% DMSO as a solvent. […] In the process, 90 μl H2O were added to each well of each compound dilution plate. To minimize potential precipitation, the H2O was added to each plate only a few minutes before the transfer of the compound solutions into the assay plates. The plate was shaken thoroughly, resulting in a compound dilution plate/10% DMSO.
(§2) For the assays (see below), 5 μL solution from each well of the compound dilution plates/10% DMSO were transferred into the assay plates. The final volume of the assay was 50 μL. All compounds were tested at 10 final assay concentrations in the range from 10 μM to 30 nM. The final DMSO concentration in the reaction cocktails was 1% in all cases.
(§3) All protein kinases provided by ProQinase were expressed in Sf9 insect cells or in E. coli as recombinant GST-fusion proteins or His-tagged proteins, either as full-length or enzymatically active fragments. All kinases were produced from human cDNAs and purified by either GSH-affinity chromatography or immobilized metal. Affinity tags were removed from a number of kinases during purification. The purity of the protein kinases was examined by SDS-PAGE/Coomassie staining, the identity was checked by mass spectroscopy.
(§4) A radiometric protein kinase assay (33PanQinase® Activity Assay) was used for measuring the kinase activity of the 12 protein kinases. All kinase assays were performed in 96-well FlashPlates™ from PerkinElmer (Boston, MA, USA) in a 50 μL reaction volume. The reaction cocktail was pipetted in four steps in the following order: • 25 μL of assay buffer (standard buffer/[γ-^33P]-ATP), • 10 μL of ATP solution (in H2O), • 5 μL of test compound (in 10% DMSO), • 10 μL of enzyme/substrate mixture.
(§5) The reaction cocktails were incubated at 30° C. for 60 minutes. The reaction was stopped with 50 μL of 2% (v/v) H3PO4, plates were aspirated and washed two times with 200 μL 0.9% (w/v) NaCl. Incorporation of ^33Pi was determined with a microplate scintillation counter (Microbeta, Wallac). The IC50 values for all compounds were calculated from the dose response curves
As a parameter for assay quality, the Z′-factor (Zhang et al., J. Biomol. Screen. 2: 67-73, 1999) for the low and high controls of each assay plate (n=8) was used. ProQinase's criterion for repetition of an assay plate is a Z′-factor below 0.4 (Iversen et al., J. Biomol. Screen. 3: 247-252, 2006).

Experiment [2] concerns the target T2, DYRK1A (Homo sapiens, UniProt Q13627).
T2 construct: GST-fusion or His-tag (not specified per kinase); purchased ProQinase GmbH; host or cells: Sf9 insect cells or E. coli (not specified per kinase)
The experiment can be described thus: Radiometric protein kinase assay (33PanQinase Activity Assay), DYRK1A. As to conditions: for Selectivity Class DYRK1A vs. CLK1: ratio of IC50 on CLK1 over IC50 on DYRK1A; for Selectivity Class DYRK1A vs. DYRK1B: ratio of IC50 on DYRK1B over IC50 on DYRK1A. The experiment is classed as biochemical. On the procedure: The IC50 profile of all compounds was determined using 12 protein kinases (CDK2/cyclin E, CK1ε, CLK1, 2, 3, 4, DYRK1A, 1B, 2, 3, 4, GSK3β).
as §1, §2, §3, §4, §5

Where [3] appears, read: class by IC50 on CLK1, from dose-response curves.
Setting [4] is: class by IC50 on DYRK1A, from dose-response curves, read-out: Potency Class DYRK1A.

Each structure is given as a SMILES string. Like-named read-outs stand apart in the source and are kept apart here.

Here are results for 19 molecules from US20250340538A1, “IMIDAZOLONE DERIVATIVES AS INHIBITORS OF PROTEIN KINASES IN PARTICULAR DYRK1A, CLK1 AND/OR CLK4” (PERHA PHARMACEUTICALS, priority 2021, published 2025).

T1 sequence (P49759 whole entry, the tested form may be a part): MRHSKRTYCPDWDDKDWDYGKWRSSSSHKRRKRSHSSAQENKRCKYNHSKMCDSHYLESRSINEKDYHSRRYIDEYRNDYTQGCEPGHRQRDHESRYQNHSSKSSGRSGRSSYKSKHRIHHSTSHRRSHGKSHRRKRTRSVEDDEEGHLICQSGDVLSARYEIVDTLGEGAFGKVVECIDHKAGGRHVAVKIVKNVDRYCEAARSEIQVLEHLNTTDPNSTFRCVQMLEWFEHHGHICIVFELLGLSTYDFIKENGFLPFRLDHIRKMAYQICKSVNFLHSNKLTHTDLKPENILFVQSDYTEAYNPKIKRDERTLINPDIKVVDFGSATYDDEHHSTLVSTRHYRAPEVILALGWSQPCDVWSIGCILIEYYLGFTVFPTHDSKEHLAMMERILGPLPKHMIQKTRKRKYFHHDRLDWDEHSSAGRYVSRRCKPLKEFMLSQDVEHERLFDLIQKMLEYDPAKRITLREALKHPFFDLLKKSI

Turning to `O=C1NC(N[C@@H]2CCC[C@@H](O)CC2)=N/C1=C\c1ccc2nccnc2c1` (racemic) [Compound 6, (±)-(4Z)-2-[[trans-4-hydroxycycloheptyl]amino]-4-(quinoxalin-6-ylmethylene)-1H-imidazol-5-one], the IC50 in experiment [1] (setting [3]) is over 50 nM.

For `CO[C@@H]1CCC[C@@H](NC2=N/C(=C\c3ccc4nccnc4c3)C(=O)N2)CC1` (racemic) [Compound 7, (+)-(4Z)-2-[[trans-4-methoxycycloheptyl]amino]-4-(quinoxalin-6-ylmethylene)-1H-imidazol-5-one], the IC50 in experiment [1] (setting [3]) is over 50 nM. Moreover, in experiment [2] (setting [4]), the IC50 is over 50 nM. For the same molecule, in experiment [2], the “Selectivity Class DYRK1A vs. CLK1” value is “II (ratio between 2 and 10 fold)”; the “Selectivity Class DYRK1A vs. DYRK1B” value was “II (ratio between 2 and 10 fold)”.

With `CO[C@H]1CCCC[C@@H](NC2=N/C(=C\c3ccc4nccnc4c3)C(=O)N2)C1` (racemic) [Compound 8, (+)-(4Z)-2-[[cis-3-methoxycycloheptyl]amino]-4-(quinoxalin-6-ylmethylene)-1H-imidazol-5-one], the IC50 in experiment [1] (setting [3]) was over 50 nM.

For `CC1(C)CCC(NC2=N/C(=C\c3ccc4nccnc4c3)C(=O)N2)CO1` (racemic) [Compound 36, (±)-(4Z)-2-[(6,6-dimethyltetrahydropyran-3-yl)amino]-4-(quinoxalin-6-ylmethylene)-1H-imidazol-5-one], the IC50 in experiment [1] (setting [3]) and in experiment [2] (setting [4]) was over 50 nM each time. Also, the “Selectivity Class DYRK1A vs. CLK1” value in experiment [2] is “II (ratio between 2 and 10 fold)”. Moreover, in experiment [2], the “Selectivity Class DYRK1A vs. DYRK1B” value is “II (ratio between 2 and 10 fold)”.

As for `O=C1NC(NC2CCCCOC2)=N/C1=C\c1ccc2nccnc2c1` (racemic) [Compound 41, (4Z)-2-(Oxepan-3-ylamino)-4-(quinoxalin-6-ylmethylene)-1H-imidazol-5-one], the IC50 in experiment [1] (setting [3]) was over 50 nM. Besides, the IC50 in experiment [2] (setting [4]) is over 50 nM. Also, in experiment [2], the “Selectivity Class DYRK1A vs. CLK1” value was “III (ratio between 0.5 and 2 fold)”; the “Selectivity Class DYRK1A vs. DYRK1B” value was “II (ratio between 2 and 10 fold)”.

As for `O=C1NC(NC2CCCCCC2)=N/C1=C\c1ccc2nccnc2c1` [Compound 1, (4Z)-2-(cycloheptylamino)-4-(quinoxalin-6-ylmethylene)-1H-imidazol-5-one], the IC50 in experiment [1] (setting [3]) is over 50 nM.

For the molecule `O=C1NC(NC2CCCCCCC2)=N/C1=C\c1ccc2nccnc2c1` [Compound 2, (4Z)-2-(cyclooctylamino)-4-(quinoxalin-6-ylmethylene)-1H-imidazol-5-one], the IC50 in experiment [1] (setting [3]) was over 50 nM.

Regarding `O=C1NC(NCC2CCCCC2)=N/C1=C\c1ccc2nccnc2c1` [Compound 3, (4Z)-2-(cyclohexylmethylamino)-4-(quinoxalin-6-ylmethylene)-1H-imidazol-5-one], the IC50 in experiment [1] (setting [3]) is over 50 nM. In addition, the IC50 in experiment [2] (setting [4]) is over 50 nM. In experiment [2], the “Selectivity Class DYRK1A vs. CLK1” value was “III (ratio between 0.5 and 2 fold)”; the “Selectivity Class DYRK1A vs. DYRK1B” value is “II (ratio between 2 and 10 fold)”.

As for `CO[C@@H]1CCC[C@H]1NC1=N/C(=C\c2ccc3nccnc3c2)C(=O)N1` [Compound 4, (4Z)-2-[[(1R,2R)-2-methoxycyclopentyl]amino]-4-(quinoxalin-6-ylmethylene)-1H-imidazol-5-one], the IC50 in experiment [1] (setting [3]) was over 50 nM. Also, in experiment [2] (setting [4]), the IC50 was over 50 nM. Moreover, in experiment [2], the “Selectivity Class DYRK1A vs. CLK1” value was “II (ratio between 2 and 10 fold)”; the “Selectivity Class DYRK1A vs. DYRK1B” value was “II (ratio between 2 and 10 fold)”.

With `CO[C@H]1CCC[C@@H]1NC1=N/C(=C\c2ccc3nccnc3c2)C(=O)N1` [Compound 5, (4Z)-2-[[(1S,2S)-2-Methoxycyclopentyl]amino]-4-(quinoxalin-6-ylmethylene)-1H-imidazol-5-one], the IC50 in experiment [1] (setting [3]) is over 50 nM. In addition, the IC50 in experiment [2] (setting [4]) was over 50 nM. In experiment [2], the “Selectivity Class DYRK1A vs. CLK1” value is “III (ratio between 0.5 and 2 fold)”; the “Selectivity Class DYRK1A vs. DYRK1B” value is “II (ratio between 2 and 10 fold)”.

Turning to `CC(C)C[C@H](CO)NC1=N/C(=C\c2ccc3nccnc3c2)C(=O)N1` [Compound 9, (4Z)-2-[[(1R)-1-(hydroxymethyl)-3-methyl-butyl]amino]-4-(quinoxalin-6-ylmethylene)-1H-imidazol-5-one], the IC50 was 25 to 50 nM in experiment [1] (IC50 class A to E); 25 to 50 nM in experiment [1] (setting [3]); 5 to 10 nM in experiment [2] (IC50 class A to E, read-out: Potency Class DYRK1A); 5 to 10 nM in experiment [2] (setting [4]); at most 10 nM in experiment [2] (read-out: IC50 on DYRK1A (most potent DYRK1A inhibitors)). Also, in experiment [2], the “Selectivity Class DYRK1A vs. CLK1” value was “II (ratio between 2 and 10 fold)”. In addition, the “Selectivity Class DYRK1A vs. DYRK1B” value in experiment [2] is “II (ratio between 2 and 10 fold)”.

Regarding `COC[C@@H](CC(C)C)NC1=N/C(=C\c2ccc3nccnc3c2)C(=O)N1` [Compound 10, (4Z)-2-[[(1R)-1-(methoxymethyl)-3-methyl-butyl]amino]-4-(quinoxalin-6-ylmethylene)-1H-imidazol-5-one], the IC50 in experiment [1] (setting [3]) was over 50 nM.

Take `CCOC[C@@H](CC(C)C)NC1=N/C(=C\c2ccc3nccnc3c2)C(=O)N1` [Compound 11, (4Z)-2-[[(1R)-1-(ethoxymethyl)-3-methyl-butyl]amino]-4-(quinoxalin-6-ylmethylene)-1H-imidazol-5-one]: the IC50 in experiment [1] (setting [3]) was over 50 nM. Further, the IC50 in experiment [2] (setting [4]) fell in the range of 10 to 25 nM. Besides, in experiment [2], the “Selectivity Class DYRK1A vs. CLK1” value is listed as “I (ratio of IC50 on CLK1 or DYRK1B over IC50 on DYRK1A ≥10 fold (most DYRK1A-selective compounds))”; the “Selectivity Class DYRK1A vs. DYRK1B” value was “II (ratio between 2 and 10 fold)”.

For `CC(C)C[C@H](COCc1ccccc1)NC1=N/C(=C\c2ccc3nccnc3c2)C(=O)N1` [Compound 12, (4Z)-2-[[(1R)-1-(benzyloxymethyl)-3-methyl-butyl]amino]-4-(quinoxalin-6-ylmethylene)-1H-imidazol-5-one], the IC50 in experiment [1] (setting [3]) is over 50 nM. Moreover, the IC50 in experiment [2] (setting [4]) was over 50 nM. Also, in experiment [2], the “Selectivity Class DYRK1A vs. CLK1” value is given as “I (ratio of IC50 on CLK1 or DYRK1B over IC50 on DYRK1A ≥10 fold (most DYRK1A-selective compounds))”; the “Selectivity Class DYRK1A vs. DYRK1B” value is “II (ratio between 2 and 10 fold)”.

As for `CC(C)C[C@H](COCc1ccc(F)cc1)NC1=N/C(=C\c2ccc3nccnc3c2)C(=O)N1` [Compound 13, (4Z)-2-[[(1R)-1-[(4-fluorophenyl)methoxymethyl]-3-methyl-butyl]amino]-4-(quinoxalin-6-ylmethylene)-1H-imidazol-5-one], the IC50 in experiment [1] (setting [3]) was over 50 nM.

Regarding `CC(C)C[C@H](CF)NC1=N/C(=C\c2ccc3nccnc3c2)C(=O)N1` [Compound 14, (4Z)-2-[[(1R)-1-(fluoromethyl)-3-methyl-butyl]amino]-4-(quinoxalin-6-ylmethylene)-1H-imidazol-5-one], the IC50 in experiment [1] (setting [3]) was over 50 nM. Also, the IC50 in experiment [2] (setting [4]) fell in the range of 10 to 25 nM. In experiment [2], the “Selectivity Class DYRK1A vs. CLK1” value is “II (ratio between 2 and 10 fold)”; the “Selectivity Class DYRK1A vs. DYRK1B” value was “II (ratio between 2 and 10 fold)”.

Turning to `O=C1NC(N[C@@H](CO)c2ccccc2)=N/C1=C\c1ccc2nccnc2c1` [Compound 24, (4Z)-2-[[(1R)-2-hydroxy-1-phenyl-ethyl]amino]-4-(quinoxalin-6-ylmethylene)-1H-imidazol-5-one], in experiment [1] (setting [3]), the IC50 was 25 to 50 nM.

`O=C1NC(N[C@H](CO)c2ccccc2)=N/C1=C\c1ccc2nccnc2c1` [Compound 25, (4Z)-2-[[(1S)-2-Hydroxy-1-phenyl-ethyl]amino]-4-(quinoxalin-6-ylmethylene)-1H-imidazol-5-one]: the IC50 in experiment [1] (setting [3]) was over 50 nM.

In the case of `O=C1NC(NC2CCCCC2)=N/C1=C\c1ccc2nccnc2c1` [Compound 74, (4Z)-2-(Cyclohexylamino)-4-(quinoxalin-6-ylmethylene)-1H-imidazol-5-one], the IC50 in experiment [1] (setting [3]) was over 50 nM.
